Source: US12029727B2, “Combinations and methods for the treatment of neuropathic pain” (priority 2016, dated 2024)

Tests used:
[1] = system: neuropathic pain model induced by L5/L6 spinal nerve ligation (tactile allodynia); conditions: rat, in vivo, po
Description: Antineuropathic effect of a combination of pregabalin and alpha lipoic acid through the neuropathic pain model induced by L5/L6 spinal nerve ligation in rat was determined.
Wistar female rats with a body weight of 120-140 g were used for all experiments. Animals were kept under temperature controlled conditions (22° C.) and water and food were given ad-libitum in experimentation rooms.
Both pregabalin and alpha lipoic acid were suspended in a 0.5% carboxymethylcellulose isotonic saline solution. Individual drugs or in combination were prepared and administered just before starting the experiment.
Rats were prepared according to the method described by Kim S H, Chung J M. 1992. […]
Tactile allodynia was determined according to the previously described method by Chaplan S R, Bach F W, Pogrel J W, Chung J M, Yaksh T L. 1994. […] Paw withdrawal mechanical threshold was measured immediately after and a systemic administration of drugs was carried out. Later, paw withdrawal mechanical threshold was measured at 0.5, 1, 2, 3, 4, 5, 6, 7 and 8 hours. […]
Graphs of 50% withdrawal threshold in grams (g) in function of time (minutes) were prepared from data obtained. Area under curve was determined from these graphs through trapezoidal method and % of maximum possible effect (% MEP) was calculated using the following formula: % MEP=(Drug AUC−Neuropathic AUC)/(Sham AUC−Neuropathic AUC)×100 […]

[2] = Safety/tolerability observations in treated rats; conditions: 30 mg/Kg dose
Description: Wistar female rats with a body weight of 120-140 g were used for all experiments. Animals were kept under temperature controlled conditions (22° C.) and water and food were given ad-libitum in experimentation rooms. Experiments were carried out according to the guidelines on ethical issues on experimental pain research in animals (Zimmermann M. 1983. Ethical guidelines for investigations of experimental pain in conscious animals. Pain. 16:109-110).

| SMILES | ED50 [1] [mg/kg] | adverse signs observed [2] |
| --- | --- | --- |
| O=C(O)CCCCC1CCSS1 (stereo not drawn) [alpha lipoic acid] | 57.5 ± 5.59 | – |
| CC(C)C[C@H](CN)CC(=O)O [pregabalin] | 2.45 ± 0.23 | sedation and motor discoordination |
